Data reported in the supplement of paper PMC10627819.
In brackets after ≈: the same amount, converted by molar mass.

Tests used:
[1] = system: B. subtilis 168
[2] = system: S. aureus Newman
[3] = system: S. pneumoniae D39V
[4] = system: S. aureus DSM 20231
[5] = system: B. subtilis 168; experiment: fitness (endpoint OD595 vs no drug) (fraction); higher = more growth
In short: (§1)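 Fitness was defined as the optical density at the transition into stationary phase relative to the robust mean of no-drug control wells. Values were capped at 1. Cultures were started at OD595 0.01 in 384-well plates (30 µl, or 55 µl for S. pneumoniae) in TSB, LB Lennox or CY at 37 °C. OD595 was recorded every 30 min over 14 h, with the first reading subtracted as background.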

[6] = system: S. aureus Newman; experiment: as above
In short: as §1

[7] = system: S. aureus DSM 20231; experiment: as above
In short: as §1

[8] = system: S. pneumoniae D39V; experiment: as above
In short: as §1

[9] = system: B. subtilis 168; experiment: Bliss interaction score (quartile over a dose matrix) (fitness difference); higher = more antagonism (negative = synergy)
In short: (§2)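 Fitness is OD595 at stationary-phase entry relative to the plate's robust no-drug mean, capped at 1. Single-drug fitness was inferred from combinations. The Bliss score is observed minus product-expected fitness, summarised by quartiles over technical, biological and donor/recipient replicates.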

[10] = system: S. aureus Newman; experiment: as above
In short: as §2

[11] = system: S. pneumoniae D39V; experiment: as above
In short: as §2

[12] = system: S. aureus DSM 20231; experiment: as above
In short: as §2

[13] = 37.5 µg/mL, main component drawn
[14] = 18.75 µg/mL, main component drawn
[15] = first compound 0.125 µg/mL, partner 1.25 µg/mL
[16] = first compound 0.125 µg/mL, partner 2.5 µg/mL
[17] = first compound 0.125 µg/mL, partner 5 µg/mL
[18] = first compound 0.25 µg/mL, partner 1.25 µg/mL
[19] = first compound 0.25 µg/mL, partner 2.5 µg/mL
[20] = first compound 0.25 µg/mL, partner 5 µg/mL
[21] = first compound 0.5 µg/mL, partner 1.25 µg/mL
[22] = first compound 0.5 µg/mL, partner 2.5 µg/mL
[23] = first compound 0.5 µg/mL, partner 5 µg/mL
[24] = first compound 0.125 µg/mL, partner 1 µg/mL
[25] = first compound 0.125 µg/mL, partner 2 µg/mL
[26] = first compound 0.125 µg/mL, partner 4 µg/mL
[27] = first compound 0.25 µg/mL, partner 1 µg/mL
[28] = first compound 0.25 µg/mL, partner 2 µg/mL
[29] = first compound 0.25 µg/mL, partner 4 µg/mL
[30] = first compound 0.5 µg/mL, partner 1 µg/mL
[31] = first compound 0.5 µg/mL, partner 2 µg/mL
[32] = first compound 0.5 µg/mL, partner 4 µg/mL
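For Bliss interaction score (quartile over a dose matrix) in this document: first quartile when negative (synergy) and third quartile when positive (antagonism).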

For CC[C@H](C)[C@H](N)C1=N[C@H](C(=O)N[C@@H](CC(C)C)C(=O)N[C@H](CCC(=O)O)C(=O)N[C@H](C(=O)N[C@H]2CCCCNC(=O)[C@H](CC(N)=O)NC(=O)[C@@H](CC(=O)O)NC(=O)[C@H](Cc3cnc[nH]3)NC(=O)[C@@H](Cc3ccccc3)NC(=O)[C@H]([C@@H](C)CC)NC(=O)[C@@H](CCCN)NC2=O)[C@@H](C)CC)CS1 [Bacitracin], the MIC ([1]; main component drawn) was 300 µg/mL (≈ 211 µM), the MIC ([2]; main component drawn) was 75 µg/mL (≈ 52.7 µM) and the MIC ([3]; main component drawn) was 1.17 µg/mL (≈ 0.824 µM). It also gave an MIC ([4]; main component drawn) of 80 µg/mL (≈ 56.2 µM), a fitness [5, 13] of 0.936 and a fitness ([5]; 75 µg/mL, main component drawn) of 0.912. The fitness ([5]; 150 µg/mL, main component drawn) was 0.802, the fitness [6, 14] was 0.683 and the fitness [6, 13] was 0.275. For the same molecule, the fitness ([6]; 75 µg/mL, main component drawn) was 0, the fitness [7, 14] was 0.628 and the fitness [7, 13] was 0.0499. The fitness ([7]; 75 µg/mL, main component drawn) was 0.0064.

CC[C@H]1OC(=O)[C@H](C)[C@@H](O[C@H]2C[C@@](C)(OC)[C@@H](O)[C@H](C)O2)[C@H](C)[C@@H](O[C@@H]2O[C@H](C)C[C@H](N(C)C)[C@H]2O)[C@](C)(O)C[C@@H](C)C(=O)[C@H](C)[C@@H](O)[C@]1(C)O [Erythromycin] showed an MIC [2] of 0.5 µg/mL (≈ 0.681 µM), an MIC [3] of 0.123 µg/mL (≈ 0.168 µM) and an MIC [4] of 0.5 µg/mL (≈ 0.681 µM). The fitness ([5]; 0.0312 µg/mL) was 0.926, the fitness ([5]; 0.0625 µg/mL) was 0.704 and the fitness ([5]; 0.125 µg/mL) was 0.0499. It also gave a fitness ([5]; 0.25 µg/mL) of 0.0212, a fitness ([6]; 0.0312 µg/mL) of 0.964 and a fitness ([6]; 0.0625 µg/mL) of 0.889. The fitness ([6]; 0.125 µg/mL) was 0.594, the fitness ([6]; 0.25 µg/mL) was 0.111 and the fitness ([6]; 0.5 µg/mL) was 0.0101.

CC(=O)NC[C@H]1CN(c2ccc(N3CCOCC3)c(F)c2)C(=O)O1 [Linezolid] was tested, and the MIC [1] was 0.5 µg/mL (≈ 1.48 µM), the fitness ([5]; 0.125 µg/mL) was 0.722 and the fitness ([5]; 0.25 µg/mL) was 0.239. For the same molecule, the fitness ([5]; 0.5 µg/mL) was 0.0555, the fitness ([8]; 0.2 µg/mL) was 0.665 and the fitness ([8]; 0.4 µg/mL) was 0.412. It also gave a fitness ([8]; 0.8 µg/mL) of 0.227, a fitness ([7]; 0.125 µg/mL) of 0.923 and a fitness ([7]; 0.25 µg/mL) of 0.648. For the same molecule, the fitness ([7]; 0.5 µg/mL) was 0.16.

Work on CC(=O)NC[C@H]1CN(c2ccc(N3CCOCC3)c(F)c2)C(=O)O1 [Linezolid] + C[n+]1ccc(-c2cc[n+](C)cc2)cc1 [Paraquat] yielded a fitness ([5]; first compound 0.0625 µg/mL, partner 1.25 µg/mL, one replicate) of 0.876, a fitness ([5]; first compound 0.0625 µg/mL, partner 2.5 µg/mL, one replicate) of 0.876 and a fitness ([5]; first compound 0.0625 µg/mL, partner 5 µg/mL, one replicate) of 0.749. The fitness [5, 15] was 0.562, the fitness [5, 16] was 0.521 and the fitness [5, 17] was 0.531. The fitness [5, 18] was 0.068, the fitness [5, 19] was 0.0848 and the fitness [5, 20] was 0.101. For the same molecule, the fitness [5, 21] was 0.0393, the fitness [5, 22] was 0.0301 and the fitness [5, 23] was 0.0453. The fitness ([8]; first compound 0.105 µg/mL, partner 1.5 µg/mL) was 0.876, the fitness ([8]; first compound 0.105 µg/mL, partner 3 µg/mL) was 0.836 and the fitness ([8]; first compound 0.105 µg/mL, partner 6 µg/mL) was 0.826. It also gave a fitness ([8]; first compound 0.2 µg/mL, partner 1.5 µg/mL, one replicate) of 0.883, a fitness ([8]; first compound 0.2 µg/mL, partner 3 µg/mL, one replicate) of 0.921 and a fitness ([8]; first compound 0.2 µg/mL, partner 6 µg/mL, one replicate) of 0.93. The fitness ([8]; first compound 0.21 µg/mL, partner 1.5 µg/mL) was 0.76, the fitness ([8]; first compound 0.21 µg/mL, partner 3 µg/mL) was 0.743 and the fitness ([8]; first compound 0.21 µg/mL, partner 6 µg/mL) was 0.711. It also gave a fitness ([8]; first compound 0.4 µg/mL, partner 1.5 µg/mL, one replicate) of 0.822, a fitness ([8]; first compound 0.4 µg/mL, partner 3 µg/mL, one replicate) of 0.853 and a fitness ([8]; first compound 0.4 µg/mL, partner 6 µg/mL, one replicate) of 0.874. It also gave a fitness ([8]; first compound 0.42 µg/mL, partner 1.5 µg/mL) of 0.598, a fitness ([8]; first compound 0.42 µg/mL, partner 3 µg/mL) of 0.565 and a fitness ([8]; first compound 0.42 µg/mL, partner 6 µg/mL) of 0.565. For the same molecule, the fitness ([8]; first compound 0.8 µg/mL, partner 1.5 µg/mL, one replicate) was 0.621, the fitness ([8]; first compound 0.8 µg/mL, partner 3 µg/mL, one replicate) was 0.626 and the fitness ([8]; first compound 0.8 µg/mL, partner 6 µg/mL, one replicate) was 0.727. For the same molecule, the fitness [7, 15] was 0.812, the fitness [7, 16] was 0.768 and the fitness [7, 17] was 0.845. The fitness [7, 18] was 0.6, the fitness [7, 19] was 0.63 and the fitness [7, 20] was 0.654. It also gave a fitness [7, 21] of 0.234, a fitness [7, 22] of 0.295 and a fitness [7, 23] of 0.323. For the same molecule, the fitness ([7]; first compound 1 µg/mL, partner 1.25 µg/mL, one replicate) was 0.0626, the fitness ([7]; first compound 1 µg/mL, partner 2.5 µg/mL, one replicate) was 0.0623 and the fitness ([7]; first compound 1 µg/mL, partner 5 µg/mL, one replicate) was 0.0727. It also gave a Bliss interaction score [9] of 0.0297, a Bliss interaction score [10] of -0.0403 and a Bliss interaction score [11] of 0.109. For the same molecule, the Bliss interaction score [12] was 0.0716.

In the case of CC(=O)NC[C@H]1CN(c2ccc(N3CCOCC3)c(F)c2)C(=O)O1 [Linezolid] + Cc1cc(NS(=O)(=O)c2ccc(N)cc2)no1 [Sulfamethoxazol], the fitness ([5]; first compound 0.0625 µg/mL, partner 1 µg/mL, one replicate) is reported as 0.94, the fitness ([5]; first compound 0.0625 µg/mL, partner 2 µg/mL, one replicate) is reported as 0.895 and the fitness ([5]; first compound 0.0625 µg/mL, partner 4 µg/mL, one replicate) is reported as 0.828. The fitness ([5]; first compound 0.125 µg/mL, partner 0.5 µg/mL, one replicate) was 0.858, the fitness [5, 24] was 0.606 and the fitness [5, 25] was 0.525. For the same molecule, the fitness [5, 26] was 0.515, the fitness ([5]; first compound 0.25 µg/mL, partner 0.5 µg/mL, one replicate) was 0.446 and the fitness [5, 27] was 0.2. It also gave a fitness [5, 28] of 0.13, a fitness [5, 29] of 0.0743 and a fitness ([5]; first compound 0.5 µg/mL, partner 0.5 µg/mL, one replicate) of 0.0399. For the same molecule, the fitness [5, 30] was 0.0228, the fitness [5, 31] was 0.0265 and the fitness [5, 32] was 0.0275. For the same molecule, the fitness ([8]; first compound 0.105 µg/mL, partner 1 µg/mL) was 0.774, the fitness ([8]; first compound 0.105 µg/mL, partner 2 µg/mL) was 0.772 and the fitness ([8]; first compound 0.105 µg/mL, partner 4 µg/mL) was 0.821. For the same molecule, the fitness ([8]; first compound 0.2 µg/mL, partner 1 µg/mL, one replicate) was 0.777, the fitness ([8]; first compound 0.2 µg/mL, partner 2 µg/mL, one replicate) was 0.817 and the fitness ([8]; first compound 0.2 µg/mL, partner 4 µg/mL, one replicate) was 0.726. For the same molecule, the fitness ([8]; first compound 0.21 µg/mL, partner 1 µg/mL) was 0.688, the fitness ([8]; first compound 0.21 µg/mL, partner 2 µg/mL) was 0.71 and the fitness ([8]; first compound 0.21 µg/mL, partner 4 µg/mL) was 0.729. It also gave a fitness ([8]; first compound 0.4 µg/mL, partner 1 µg/mL, one replicate) of 0.368, a fitness ([8]; first compound 0.4 µg/mL, partner 2 µg/mL, one replicate) of 0.674 and a fitness ([8]; first compound 0.4 µg/mL, partner 4 µg/mL, one replicate) of 0.661. The fitness ([8]; first compound 0.42 µg/mL, partner 1 µg/mL) was 0.463, the fitness ([8]; first compound 0.42 µg/mL, partner 2 µg/mL) was 0.48 and the fitness ([8]; first compound 0.42 µg/mL, partner 4 µg/mL) was 0.48. It also gave a fitness ([8]; first compound 0.8 µg/mL, partner 1 µg/mL, one replicate) of 0.348, a fitness ([8]; first compound 0.8 µg/mL, partner 2 µg/mL, one replicate) of 0.427 and a fitness ([8]; first compound 0.8 µg/mL, partner 4 µg/mL, one replicate) of 0.397. It also gave a fitness [7, 24] of 0.844, a fitness [7, 25] of 0.865 and a fitness [7, 26] of 0.852. For the same molecule, the fitness [7, 27] was 0.55, the fitness [7, 28] was 0.533 and the fitness [7, 29] was 0.557. For the same molecule, the fitness [7, 30] was 0.167, the fitness [7, 31] was 0.161 and the fitness [7, 32] was 0.186. It also gave a fitness ([7]; first compound 1 µg/mL, partner 1 µg/mL, one replicate) of 0.0364, a fitness ([7]; first compound 1 µg/mL, partner 2 µg/mL, one replicate) of 0.0289 and a fitness ([7]; first compound 1 µg/mL, partner 4 µg/mL, one replicate) of 0.0207. The Bliss interaction score [9] was -0.0478, the Bliss interaction score [10] was 0.0723 and the Bliss interaction score [11] was -0.0972. For the same molecule, the Bliss interaction score [12] was -0.03.
